Tests used:
kochia (KCHSC) = assay: Test 21 growth chamber, postemergence; assay type: in vivo, Kochia scoparia; details: 19 DAA
Protocol: A test was conducted to evaluate the effects on winter barley (HORVW, Hordeum vulgare L.), winter wheat (TRZAW, Triticum aestivum L.), and several weed species, of mixtures of Compound 2 with the commercial herbicide (2,4-dichlorophenoxy)acetic acid (2,4-D), an auxin mimic. […] Plants were treated postemergence at the 2-4 leaf growth stage, and each treatment was replicated one time. […] Plants were watered as needed. […] Results are from single replicates.

alexandergrass (BRAPL) = assay: Test 11 field trial, preemergence; assay type: in vivo, Brachiaria plantaginea; parameters: scale not given here; details: alone or + atrazine 1500 or metolachlor 2500
From the text: Corn seeds (hybrid ‘Pioneer 3041’) were planted in mid spring season, 5 cm deep in a clay soil having 2.6% organic matter and a pH of 5.6. Plots were 8 m long by 1.5 m wide with rows spaced 80 cm apart. Seeds were spaced 15 cm apart within the rows. The field was managed using conventional tillage practices. […] Treatments consisted of Compound 2 or
Goosegrass was not evaluated 16 or 91 days after application.

[1] = test system: ivyleaf morningglory (IPOHE); assay: Test 10 field trial, preemergence; assay type: in vivo, Ipomoea hederacea; details: 28 DAA
From the text: (§1) Corn seeds (hybrid ‘Pioneer 33P65 RR’) were planted in mid spring season, 2.5 cm deep in a silt loam soil. Plots were 9.1 m long by 3.0 m wide with rows spaced 76 cm apart. The field was managed using conventional tillage practices. […] Results are the means of the three replicates.

giant foxtail (SETFA) [2] = assay: Test 6 field trial, postemergence; assay type: in vivo, Setaria faberi
From the text: (§2) Corn seeds (hybrid ‘Pioneer 35Y62’) were planted in mid spring season, 3.8 cm deep in a silt loam soil having 4% organic matter and a pH of 5.8. Plots were 10.7 m long by 1.5 m wide with rows spaced 76 cm apart. Seeds were spaced 18 cm apart within the rows. The field was managed using conventional tillage practices. […] All treatments included a surfactant except glufosinate treatments, both alone and in combination. […] Results are summarized in Table 6 and are the means of the three replicates.

barley (HORVX) = assay: Test 30 growth chamber, postemergence; assay type: in vivo, Hordeum vulgare; details: 17 DAA
Protocol: A growth chamber test was conducted to evaluate the effects on the plant species wheat (TRZAW, Triticum aestivum L.) and barley (HORVX, Hordeum vulgare L.) with mixtures of Compound 1 and Compound 2 with glycerol. Wheat and barley seeds were planted in a sandy loam soil having 0.9% organic matter and a pH of 6.3. […] Wheat and barley plants were treated postemergence at the two leaf growth stage for Compound 1 and at the three leaf growth stage for Compound 2. Each treatment was replicated one time. […] Plants were watered as needed. […] Colby's Equation was used to determine herbicidal effects expected from the mixtures.

common ragweed (AMBEL) = assay: Test 8 field trial, preemergence; assay type: in vivo, Ambrosia artemisiifolia
From the text: (§3) Corn seeds (hybrid ‘Pioneer 31G96’) were planted in mid spring season, 3.8 cm deep in a clay loam soil having 2% organic matter and a pH of 6.6. Plots were 6.1 m long by 3.0 m wide with rows spaced 76 cm apart. Seeds were spaced 15 cm apart within the rows. The field was managed using conventional tillage practices. […] A few of the weed species could not be evaluated at every timing. […] Results are the means of the three replicates.

common waterhemp (AMATA) = assay: Test 10 field trial, preemergence; assay type: in vivo, Amaranthus tamariscinus; details: 28 DAA
From the text: as §1

redroot pigweed (AMARE) = assay: Test 1 field trial, preemergence; assay type: in vivo, Amaranthus retroflexus
From the text: Corn seeds (hybrid ‘Pioneer 34N43’) were planted in mid spring season, 3.8 cm deep in a silt loam soil having 4.6% organic matter and a pH of 6. Plots were 10.7 m long by 1.5 m wide with rows spaced 76 cm apart. Seeds were spaced 18 cm apart within the rows. The field was managed using conventional tillage practices. […] Results are summarized in Table 1 and are the means of the three replicates. […] Colby's Equation (Colby, S. R. “Calculating Synergistic and Antagonistic Responses of Herbicide Combinations,” Weeds, 15(1), pp 20-22 (1967)) calculates the expected additive effect of herbicidal mixtures, and for two active ingredients is of the form:
Pa+b=Pa+Pb−(PaPb/100) • wherein Pa+b is the percentage effect of the mixture expected from additive contribution of the individual components, • Pa is the observed percentage effect of the first active ingredient at the same use rate as in the mixture, and • Pb is the observed percentage effect of the second active ingredient at the same use rate as in the mixture.

velvetleaf (ABUTH) = assay: Test 6 field trial, postemergence; assay type: in vivo, Abutilon theophrasti
From the text: as §2

giant foxtail (SETFA) [3] = assay: Test 8 field trial, preemergence; assay type: in vivo, Setaria faberi
From the text: as §3

[4] = g a.i./ha: Cpd 2 50, S-Metolachlor 1870
[5] = g a.i./ha: Cpd 2 100, Atrazine 1680, S-Metolachlor 1870
[6] = g a.i./ha: Cpd 2 150, S-Metolachlor 1870
[7] = 19 DAA, g a.i./ha: Cpd 2 50, S-Metolachlor 1870
[8] = 19 DAA, g a.i./ha: Cpd 2 100, Atrazine 1680, S-Metolachlor 1870
[9] = 19 DAA, g a.i./ha: Cpd 2 150, S-Metolachlor 1870
[10] = 29 DAA, g a.i./ha: Cpd 2 50, S-Metolachlor 1870
[11] = 29 DAA, g a.i./ha: Cpd 2 100, Atrazine 1680, S-Metolachlor 1870
[12] = 29 DAA, g a.i./ha: Cpd 2 150, S-Metolachlor 1870
[13] = 56 DAA, g a.i./ha: Cpd 2 50, S-Metolachlor 1870
[14] = 56 DAA, g a.i./ha: Cpd 2 100, Atrazine 1680, S-Metolachlor 1870
[15] = 56 DAA, g a.i./ha: Cpd 2 150, S-Metolachlor 1870

Question: COC(=O)c1nc(C2CC2)nc(N)c1Cl [Compound 2, methyl 6-amino-5-chloro-2-cyclopropyl-4-pyrimidinecarboxylate] was tested. Which “Postemergence KCHSC Obs” value (kochia (KCHSC); Cpd 2 alone 16 g a.i./ha) did it give?
Answer: 65

Question: What about the “BRAPL Obs” value (alexandergrass (BRAPL); 16 DAA, Cpd 2/Cpd 1 at 62 g a.i./ha) of the same compound?
Answer: 40

Question: And the “BRAPL Obs” value (alexandergrass (BRAPL); 16 DAA, Cpd 2/Cpd 1 at 125 g a.i./ha)?
Answer: 70

Question: And the “BRAPL Obs” value (alexandergrass (BRAPL); 30 DAA, Cpd 2/Cpd 1 at 62 g a.i./ha)?
Answer: 0

Question: What about the “BRAPL Obs” value (alexandergrass (BRAPL); 30 DAA, Cpd 2/Cpd 1 at 125 g a.i./ha) of the same compound?
Answer: 75

Question: What about the “BRAPL Obs” value (alexandergrass (BRAPL); 44 DAA, Cpd 2/Cpd 1 at 62 g a.i./ha) of the same compound?
Answer: 0

Question: And the “BRAPL Obs” value (alexandergrass (BRAPL); 44 DAA, Cpd 2/Cpd 1 at 125 g a.i./ha)?
Answer: 60

Question: What about the “BRAPL Obs” value (alexandergrass (BRAPL); 62 DAA, Cpd 2/Cpd 1 at 62 g a.i./ha) of the same compound?
Answer: 0

Question: What about the “BRAPL Obs” value (alexandergrass (BRAPL); 62 DAA, Cpd 2/Cpd 1 at 125 g a.i./ha) of the same compound?
Answer: 0

Question: And the “BRAPL Obs” value (alexandergrass (BRAPL); 91 DAA, Cpd 2/Cpd 1 at 62 g a.i./ha)?
Answer: 0

Question: And the “BRAPL Obs” value (alexandergrass (BRAPL); 91 DAA, Cpd 2/Cpd 1 at 125 g a.i./ha)?
Answer: 0

Question: What about the “IPOHE Obs” value [1, 4] of the same compound?
Answer: 13%

Question: What about the “IPOHE Obs” value [1, 5] of the same compound?
Answer: 5%

Question: And the “IPOHE Obs” value [1, 6]?
Answer: 20%

Question: And the “SETFA Obs” value (giant foxtail (SETFA) [2]; 14 DAA, 30 g a.i./ha)?
Answer: 0%

Question: What about the “SETFA Obs” value (giant foxtail (SETFA) [2]; 14 DAA, 60 g a.i./ha) of the same compound?
Answer: 0%

Question: What about the “SETFA Obs” value (giant foxtail (SETFA) [2]; 28 DAA, 30 g a.i./ha) of the same compound?
Answer: 0%

Question: What about the “SETFA Obs” value (giant foxtail (SETFA) [2]; 28 DAA, 60 g a.i./ha) of the same compound?
Answer: 0%

Question: And the HORVX Obs (barley (HORVX); Cpd 2 1 g a.i./ha)?
Answer: 25%

Question: What about the HORVX Obs (barley (HORVX); Cpd 2 4 g a.i./ha) of the same compound?
Answer: 30%

Question: What about the HORVX Obs (barley (HORVX); Cpd 2 16 g a.i./ha) of the same compound?
Answer: 35%

Question: And the “AMBEL Obs” value (common ragweed (AMBEL); [7])?
Answer: 36%

Question: What about the “AMBEL Obs” value (common ragweed (AMBEL); [8]) of the same compound?
Answer: 73%

Question: And the “AMBEL Obs” value (common ragweed (AMBEL); [9])?
Answer: 83%

Question: And the “AMBEL Obs” value (common ragweed (AMBEL); [10])?
Answer: 65%

Question: What about the “AMBEL Obs” value (common ragweed (AMBEL); [11]) of the same compound?
Answer: 88%

Question: And the “AMBEL Obs” value (common ragweed (AMBEL); [12])?
Answer: 96%

Question: What about the “AMBEL Obs” value (common ragweed (AMBEL); [13]) of the same compound?
Answer: 52%

Question: And the “AMBEL Obs” value (common ragweed (AMBEL); [14])?
Answer: 90%

Question: And the “AMBEL Obs” value (common ragweed (AMBEL); [15])?
Answer: 97%

Question: What about the “AMATA Obs” value (common waterhemp (AMATA); [4]) of the same compound?
Answer: 20%

Question: And the “AMATA Obs” value (common waterhemp (AMATA); [5])?
Answer: 10%

Question: What about the “AMATA Obs” value (common waterhemp (AMATA); [6]) of the same compound?
Answer: 23%

Question: What about the “AMARE Obs” value (redroot pigweed (AMARE); 28 DAA, g a.i./ha: Cpd 2 50, S-Metolachlor 1870) of the same compound?
Answer: 0

Question: What about the “AMARE Obs” value (redroot pigweed (AMARE); 28 DAA, g a.i./ha: Cpd 2 100, Atrazine 1680, S-Metolachlor 1870) of the same compound?
Answer: 7

Question: And the “AMARE Obs” value (redroot pigweed (AMARE); 28 DAA, g a.i./ha: Cpd 2 150, S-Metolachlor 1870)?
Answer: 58

Question: What about the “AMARE Obs” value (redroot pigweed (AMARE); [13]) of the same compound?
Answer: 7

Question: And the “AMARE Obs” value (redroot pigweed (AMARE); [14])?
Answer: 55

Question: What about the “AMARE Obs” value (redroot pigweed (AMARE); [15]) of the same compound?
Answer: 100

Question: What about the “ABUTH Obs” value (velvetleaf (ABUTH); 14 DAA, 30 g a.i./ha) of the same compound?
Answer: 0%

Question: And the “ABUTH Obs” value (velvetleaf (ABUTH); 14 DAA, 60 g a.i./ha)?
Answer: 0%

Question: What about the “ABUTH Obs” value (velvetleaf (ABUTH); 28 DAA, 30 g a.i./ha) of the same compound?
Answer: 0%

Question: What about the “ABUTH Obs” value (velvetleaf (ABUTH); 28 DAA, 60 g a.i./ha) of the same compound?
Answer: 0%

Question: And the “SETFA Obs” value (giant foxtail (SETFA) [3]; [7])?
Answer: 33%

Question: What about the “SETFA Obs” value (giant foxtail (SETFA) [3]; [8]) of the same compound?
Answer: 40%

Question: And the “SETFA Obs” value (giant foxtail (SETFA) [3]; [9])?
Answer: 43%

Question: And the “SETFA Obs” value (giant foxtail (SETFA) [3]; [10])?
Answer: 32%

Question: And the “SETFA Obs” value (giant foxtail (SETFA) [3]; [11])?
Answer: 42%

Question: And the “SETFA Obs” value (giant foxtail (SETFA) [3]; [12])?
Answer: 47%

Question: And the “SETFA Obs” value (giant foxtail (SETFA) [3]; [13])?
Answer: 8%

Question: What about the “SETFA Obs” value (giant foxtail (SETFA) [3]; [14]) of the same compound?
Answer: 7%

Question: What about the “SETFA Obs” value (giant foxtail (SETFA) [3]; [15]) of the same compound?
Answer: 17%

Question: O=C(O)CNCP(=O)(O)O [Glyphosate] was tested. Which “SETFA Obs” value (giant foxtail (SETFA) [2]; 14 DAA, 1120 g a.i./ha) did it give?
Answer: 100%

Question: And the “SETFA Obs” value (giant foxtail (SETFA) [2]; 28 DAA, 1120 g a.i./ha)?
Answer: 100%

Question: And the “ABUTH Obs” value (velvetleaf (ABUTH); 14 DAA, 1120 g a.i./ha)?
Answer: 99%

Question: What about the “ABUTH Obs” value (velvetleaf (ABUTH); 28 DAA, 1120 g a.i./ha) of the same compound?
Answer: 100%

Question: O=C(O)COc1ccc(Cl)cc1Cl [2,4-D, (2,4-dichlorophenoxy)acetic acid] was tested. Which “Postemergence KCHSC Obs” value (kochia (KCHSC); 2,4-D alone 125 g a.i./ha) did it give?
Answer: 45

Question: And the “Postemergence KCHSC Obs” value (kochia (KCHSC); 2,4-D alone 250 g a.i./ha)?
Answer: 45
